Experimental data published in patent US10323007B1, “N2N N4-disubstituted quinazoline-2,4-diamines and uses thereof” (University of South Florida, priority 2016, dated 2019).
Converted amounts (≈) assume the structure as drawn.

What follows are compounds tested on A. baumannii 1403 biofilm (assay: biofilm eradication determination assay, strain 1403). Conditions: 90% biofilm eradication, Table 8.
Format: cell-based, Acinetobacter baumannii
Method: (§1) These assays were performed as described by us previously,^26,24 as follows. Each of the A. baumannii strains were grown overnight in Mueller Hinton Broth (MHB). The next day these were used to seed fresh MHB to an OD600 of 0.5, with 150 μL then added to the wells of a 96 well plate and grown for 24 hours at 37° C. After 24 hours, the planktonic bacteria were carefully removed and fresh MHB was added with increasing concentrations of lead quinazolines. After incubation at 37° C. for 24 hours, planktonic cells were removed and biofilms were washed three times with phosphate buffered saline (PBS). Biofilms were then resuspended in PBS and plated for cell viability on tryptic soy agar. Biofilm recovery was assessed compared to no drug controls, and determined as percent eradication. This was used to determine MBEC90 values (Minimal Biofilm Eradication Concentration), where the viability of cells within the biofilm was reduced by 90%.
For `CNc1nc(NCc2ccccc2)nc2ccc(C3CCCCC3)cc12` [Compound 30, N^2-Benzyl-6-cyclohexyl-N^4-methylquinazoline-2,4-diamine], the “MBEC90 1403” value was 21 µM.

What follows are compounds tested on A. baumannii 1651 (assay: minimal bactericidal concentration (MBC) assay, strain 1651). Conditions: Acinetobacter baumannii, Table 8, read-out: MBC90 1651.
Format: cell-based
Description: (§2) Lead quinazolines 4, 5, 26, 29, 27, and 30 were selected to be further evaluated for antimicrobial effects. The first assay utilized was a minimal bactericidal concentration (MBC) assay, to assess whether leads compounds were bacteriostatic or bactericidal. The six lead agents were screened to identify their MBC90 towards each of the six A. baumannii isolates used in the SAR studies (Table 8), however for simplicity only the representative data for isolate 1646 is detailed below (Table 6). […] Further to this, we were able to obtain complete eradication of bacterial growth for these two compounds at 1 μM for 24 and 5 μM for 25.
(§3) MIC and MBC assays were performed in this study as documented by us previously.^17,23,24,25 The A. baumannii strains used are detailed in Table 7.
With `CNc1nc(NCc2ccccc2)nc2ccc(C3CCCCC3)cc12` [Compound 30, N^2-Benzyl-6-cyclohexyl-N^4-methylquinazoline-2,4-diamine] the MBC was 28 µM (≈ 9.7 µg/mL).

The compounds below were run on A. baumannii 1646 (assay: MIC assay, strain 1646). Conditions: Acinetobacter baumannii; Table 6; representative data for isolate 1646; read-out: MIC.
Format: cell-based, Acinetobacter baumannii
Method: as §3
`CNc1nc(NCc2ccccc2)nc2ccc(C3CCCCC3)cc12` [Compound 30, N^2-Benzyl-6-cyclohexyl-N^4-methylquinazoline-2,4-diamine] gave an MIC of 2 µM (≈ 0.693 µg/mL).

Same assay, conditions: Acinetobacter baumannii; strain 1646; Tables 1, 3, 4, 5 and footnotes; read-out: 1646 MIC
`CNc1nc(NCc2ccccc2)nc2ccc(C3CCCCC3)cc12` [Compound 30, N^2-Benzyl-6-cyclohexyl-N^4-methylquinazoline-2,4-diamine] was tested, and the MIC was 2 µM (≈ 0.693 µg/mL).

Same assay, conditions: Acinetobacter baumannii; strain 1646; lead quinazolines, Table 8; read-out: MIC 1646
`CNc1nc(NCc2ccccc2)nc2ccc(C3CCCCC3)cc12` [Compound 30, N^2-Benzyl-6-cyclohexyl-N^4-methylquinazoline-2,4-diamine] was tested, and the MIC was 2 µM (≈ 0.693 µg/mL).

These compounds were tested on A. baumannii 1650 biofilm (assay: biofilm eradication determination assay, strain 1650). Conditions: 90% biofilm eradication, Table 8.
Format: cell-based, Acinetobacter baumannii
Method: as §1
`CNc1nc(NCc2ccccc2)nc2ccc(C3CCCCC3)cc12` [Compound 30, N^2-Benzyl-6-cyclohexyl-N^4-methylquinazoline-2,4-diamine] was tested, and the “MBEC90 1650” value was 46 µM.

Each compound was assayed on A. baumannii 1651 biofilm (assay: biofilm eradication determination assay, strain 1651). Conditions: 90% biofilm eradication, Table 8.
Format: cell-based, Acinetobacter baumannii
Method: as §1
With `CNc1nc(NCc2ccccc2)nc2ccc(C3CCCCC3)cc12` [Compound 30, N^2-Benzyl-6-cyclohexyl-N^4-methylquinazoline-2,4-diamine] the “MBEC90 1651” value was 33 µM.

The compounds below were run on A. baumannii 1646 biofilm (assay: biofilm eradication determination assay, strain 1646). Conditions: Table 6; representative data for isolate 1646.
Format: cell-based, Acinetobacter baumannii
Method: as §1
`CNc1nc(NCc2ccccc2)nc2ccc(C3CCCCC3)cc12` [Compound 30, N^2-Benzyl-6-cyclohexyl-N^4-methylquinazoline-2,4-diamine] gave an MBEC90 of 41.2 µM.

Same assay, conditions: at 50 μM; strain 1646
`CNc1nc(NCc2ccccc2)nc2ccc(C3CCCCC3)cc12` [Compound 30, N^2-Benzyl-6-cyclohexyl-N^4-methylquinazoline-2,4-diamine] was tested, and the “reduction in biofilm viability” value was 4.2 log.

Same assay, conditions: strain 1646; 90% biofilm eradication; Table 8 and text
For `CNc1nc(NCc2ccccc2)nc2ccc(C3CCCCC3)cc12` [Compound 30, N^2-Benzyl-6-cyclohexyl-N^4-methylquinazoline-2,4-diamine], the “MBEC90 1646” value was 41 µM.

These compounds were tested on A. baumannii 1403 (assay: minimal bactericidal concentration (MBC) assay, strain 1403). Conditions: Acinetobacter baumannii, Table 8, read-out: MBC90 1403.
Format: cell-based
Description: as §2, §3
For `CNc1nc(NCc2ccccc2)nc2ccc(C3CCCCC3)cc12` [Compound 30, N^2-Benzyl-6-cyclohexyl-N^4-methylquinazoline-2,4-diamine], the MBC was 32 µM (≈ 11.1 µg/mL).

These compounds were tested on A. baumannii 1649 (assay: minimal bactericidal concentration (MBC) assay, strain 1649). Conditions: Acinetobacter baumannii, Table 8, read-out: MBC90 1649.
Format: cell-based
Description: as §2, §3
Compound `CNc1nc(NCc2ccccc2)nc2ccc(C3CCCCC3)cc12` [Compound 30, N^2-Benzyl-6-cyclohexyl-N^4-methylquinazoline-2,4-diamine] has an MBC of 33 µM (≈ 11.4 µg/mL).

These compounds were tested on A. baumannii 1646 (assay: minimal bactericidal concentration (MBC) assay, strain 1646). Conditions: Acinetobacter baumannii, 1646, strain 1646; Table 8 and text; read-out: MBC90 1646.
Format: cell-based, Acinetobacter baumannii
Description: as §2, §3
`CNc1nc(NCc2ccccc2)nc2ccc(C3CCCCC3)cc12` [Compound 30, N^2-Benzyl-6-cyclohexyl-N^4-methylquinazoline-2,4-diamine] was tested, and the MBC was 1.1 µM (≈ 0.381 µg/mL).

Same assay, conditions: Acinetobacter baumannii; Table 6; representative data for isolate 1646; read-out: MBC90
`CNc1nc(NCc2ccccc2)nc2ccc(C3CCCCC3)cc12` [Compound 30, N^2-Benzyl-6-cyclohexyl-N^4-methylquinazoline-2,4-diamine] showed an MBC of 1.1 µM (≈ 0.381 µg/mL).

The compounds below were run on A. baumannii (assay: MIC assay, A. baumannii isolates (strain not given)). Conditions: Acinetobacter baumannii; most isolates besides the 1652 strain; read-out: MIC against most isolates.
Format: cell-based, Acinetobacter baumannii
Method: as §3
`CNc1nc(NCc2ccccc2)nc2ccc(C3CCCCC3)cc12` [Compound 30, N^2-Benzyl-6-cyclohexyl-N^4-methylquinazoline-2,4-diamine] gave an MIC of 2 µM (≈ 0.693 µg/mL).

The compounds below were run on A. baumannii 1650 (assay: MIC assay, strain 1650). Conditions: Acinetobacter baumannii; strain 1650; Tables 1, 3, 4, 5 and footnotes; read-out: 1650 MIC.
Format: cell-based, Acinetobacter baumannii
Method: as §3
`CNc1nc(NCc2ccccc2)nc2ccc(C3CCCCC3)cc12` [Compound 30, N^2-Benzyl-6-cyclohexyl-N^4-methylquinazoline-2,4-diamine] was tested, and the MIC was 2 µM (≈ 0.693 µg/mL).

Same assay, conditions: Acinetobacter baumannii; strain 1650; lead quinazolines, Table 8; read-out: MIC 1650
Work on `CNc1nc(NCc2ccccc2)nc2ccc(C3CCCCC3)cc12` [Compound 30, N^2-Benzyl-6-cyclohexyl-N^4-methylquinazoline-2,4-diamine] yielded an MIC of 20 µM (≈ 6.93 µg/mL).

These compounds were tested on A. baumannii 1649 (assay: MIC assay, strain 1649). Conditions: Acinetobacter baumannii; strain 1649; Tables 1, 3, 4, 5 and footnotes; read-out: 1649 MIC.
Format: cell-based, Acinetobacter baumannii
Method: as §3
In the case of `CNc1nc(NCc2ccccc2)nc2ccc(C3CCCCC3)cc12` [Compound 30, N^2-Benzyl-6-cyclohexyl-N^4-methylquinazoline-2,4-diamine], the MIC is reported as 2 µM (≈ 0.693 µg/mL).

Same assay, conditions: Acinetobacter baumannii; strain 1649; lead quinazolines, Table 8; read-out: MIC 1649
Compound `CNc1nc(NCc2ccccc2)nc2ccc(C3CCCCC3)cc12` [Compound 30, N^2-Benzyl-6-cyclohexyl-N^4-methylquinazoline-2,4-diamine] has an MIC of 15 µM (≈ 5.2 µg/mL).

The compounds below were run on A. baumannii 1651 (assay: MIC assay, strain 1651). Conditions: Acinetobacter baumannii; strain 1651; Tables 1, 3, 4, 5 and footnotes; read-out: 1651 MIC.
Format: cell-based, Acinetobacter baumannii
Method: as §3
Compound `CNc1nc(NCc2ccccc2)nc2ccc(C3CCCCC3)cc12` [Compound 30, N^2-Benzyl-6-cyclohexyl-N^4-methylquinazoline-2,4-diamine] has an MIC of 2 µM (≈ 0.693 µg/mL).

Same assay, conditions: Acinetobacter baumannii; strain 1651; lead quinazolines, Table 8; read-out: MIC 1651
With `CNc1nc(NCc2ccccc2)nc2ccc(C3CCCCC3)cc12` [Compound 30, N^2-Benzyl-6-cyclohexyl-N^4-methylquinazoline-2,4-diamine] the MIC was 20 µM (≈ 6.93 µg/mL).

The compounds below were run on A. baumannii 1652 (assay: minimal bactericidal concentration (MBC) assay, strain 1652). Conditions: Acinetobacter baumannii, Table 8, read-out: MBC90 1652.
Format: cell-based
Description: as §2, §3
For `CNc1nc(NCc2ccccc2)nc2ccc(C3CCCCC3)cc12` [Compound 30, N^2-Benzyl-6-cyclohexyl-N^4-methylquinazoline-2,4-diamine], the MBC was 17 µM (≈ 5.89 µg/mL).

The compounds below were run on A. baumannii 1403 (assay: MIC assay, strain 1403). Conditions: Acinetobacter baumannii; strain 1403; Tables 1, 3, 4, 5 and footnotes; read-out: 1403 MIC.
Format: cell-based, Acinetobacter baumannii
Method: as §3
Work on `CNc1nc(NCc2ccccc2)nc2ccc(C3CCCCC3)cc12` [Compound 30, N^2-Benzyl-6-cyclohexyl-N^4-methylquinazoline-2,4-diamine] yielded an MIC of 2 µM (≈ 0.693 µg/mL).

Same assay, conditions: Acinetobacter baumannii; strain 1403; lead quinazolines, Table 8; read-out: MIC 1403
`CNc1nc(NCc2ccccc2)nc2ccc(C3CCCCC3)cc12` [Compound 30, N^2-Benzyl-6-cyclohexyl-N^4-methylquinazoline-2,4-diamine] was tested, and the MIC was 20 µM (≈ 6.93 µg/mL).

These compounds were tested on A. baumannii 1650 (assay: minimal bactericidal concentration (MBC) assay, strain 1650). Conditions: Acinetobacter baumannii, Table 8, read-out: MBC90 1650.
Format: cell-based
Description: as §2, §3
Compound `CNc1nc(NCc2ccccc2)nc2ccc(C3CCCCC3)cc12` [Compound 30, N^2-Benzyl-6-cyclohexyl-N^4-methylquinazoline-2,4-diamine] has an MBC of 22 µM (≈ 7.62 µg/mL).

What follows are compounds tested on A. baumannii 1652 biofilm (assay: biofilm eradication determination assay, strain 1652). Conditions: 90% biofilm eradication, Table 8.
Format: cell-based, Acinetobacter baumannii
Method: as §1
With `CNc1nc(NCc2ccccc2)nc2ccc(C3CCCCC3)cc12` [Compound 30, N^2-Benzyl-6-cyclohexyl-N^4-methylquinazoline-2,4-diamine] the “MBEC90 1652” value was >100 µM.

Each compound was assayed on A. baumannii 1649 biofilm (assay: biofilm eradication determination assay, strain 1649). Conditions: 90% biofilm eradication, Table 8.
Format: cell-based, Acinetobacter baumannii
Method: as §1
`CNc1nc(NCc2ccccc2)nc2ccc(C3CCCCC3)cc12` [Compound 30, N^2-Benzyl-6-cyclohexyl-N^4-methylquinazoline-2,4-diamine] was tested, and the “MBEC90 1649” value was 68 µM.

The compounds below were run on human HepG2 cells (assay: not given). Conditions: at 25 μM (highest concentration tested).
Format: cell-based
Method: Cytotoxicity assays were performed using human HepG2 cells (human liver epithelial with hepatocellular carcinoma), as described by us previously.^17,24 Cells were cultured in Dulbecco's modified eagle medium (DMEM), supplemented with 10% fetal bovine serum and 1% penicillin-streptomycin for 3 days at 37° C. and 5% CO2. Cells were then diluted to 1×10^5 ml^−1 using fresh DMEM and added to 96 well tissue culture plates at a volume of 100 μL. Plates were incubated for 24 hours at 37° C. and 5% CO2, allowing the cells to adhere to the plastic. […] Plates were then incubated for 48 hours at 37° C. and 5% CO2. After 48 hours the DMEM was removed and 100 μL of new media was added containing MTT (3-(4, 5-dimethylthiazol-2-yl)-2, 5-diphenyltetrazolium bromide), followed by incubation for four hours at 37° C. and 5% CO2. […] Lead compounds were solvated in 100% DMSO for these studies, which served as the negative control. LD50 values were determined for each compound by comparison to vehicle only controls.
`CNc1nc(NCc2ccccc2)nc2ccc(C3CCCCC3)cc12` [Compound 30, N^2-Benzyl-6-cyclohexyl-N^4-methylquinazoline-2,4-diamine] was tested, and the HepG2 cell viability was 39%.

Same assay, conditions: human, 48 h
`CNc1nc(NCc2ccccc2)nc2ccc(C3CCCCC3)cc12` [Compound 30, N^2-Benzyl-6-cyclohexyl-N^4-methylquinazoline-2,4-diamine] was tested, and the “LD50(HepG2)” value was 11 µM.

Each compound was assayed on A. baumannii 1652 (assay: MIC assay, strain 1652). Conditions: Acinetobacter baumannii; strain 1652; Tables 1, 3, 4, 5 and footnotes; read-out: 1652 MIC.
Format: cell-based, Acinetobacter baumannii
Method: as §3
For `CNc1nc(NCc2ccccc2)nc2ccc(C3CCCCC3)cc12` [Compound 30, N^2-Benzyl-6-cyclohexyl-N^4-methylquinazoline-2,4-diamine], the MIC was 10 µM (≈ 3.46 µg/mL).

Same assay, conditions: Acinetobacter baumannii; strain 1652; lead quinazolines, Table 8; read-out: MIC 1652
With `CNc1nc(NCc2ccccc2)nc2ccc(C3CCCCC3)cc12` [Compound 30, N^2-Benzyl-6-cyclohexyl-N^4-methylquinazoline-2,4-diamine] the MIC was 20 µM (≈ 6.93 µg/mL).
